24 compounds from publication PMC5786306, “An AKAP-Lbc-RhoA interaction inhibitor promotes the translocation of aquaporin-2 to the plasma membrane of renal collecting duct principal cells” (PLoS ONE, 2018) can be followed below.

The term solubility denotes the concentration that dissolves in the medium under given conditions.

A short description of data set [1]: Nephelometric solubility. Format: physicochemical. The following applies: maximal solubility in DMEM + 10 % FCS. On the procedure:
Solubility of Scaff10 derivatives was assessed nephelometrically. Scaff10 derivatives are moderately to poorly soluble in aqueous solutions due to their large number of aromatic rings having lipophilic character. Details about NMR, LC/MS and HPLC characterization steps are given in the Supplemental Information.
Suppl. Tab. 3: Overview of all 55 Scaff10 derivatives.Structures labeld with 1 were commercially obtained. MW = molecular weight. logP = calculated partition coefficient (using […]
Solubility was assessed nephelometrically in DMEM + 10 % FCS + Scaff10 derivative with either 0.3 or 2 % DMSO
final concentration; values in µM indicate maximal solubility of the compound under the respective condition. Yield in % indicates total yield of the last step of chemical synthesis
for each of Scaff10 derivatives. n.d. = not determined. n.i. = not indicated.
Scaff10 MW Number of exp. 2 % DMSO 0.3 % DMSO Scaff10 Yield
Structure log P Disruption of the PPI IC50 [µM]
derivative [g/mol] in dupl. [µM] [µM] class [%]

Data set [2] addresses T1, interaction of AKAP-Lbc/DHPH and RhoA (Homo sapiens, UniProt P61586).
T1 construct: His6-AKAP-Lbc/DHPH (aa 1972–2342 of human AKAP-Lbc; NP_006729.4); made in house
As to the kind of experiment: Homogeneous time-resolved fluorescence (HTRF) assay. Format: binding. Conditions: for inhibitory effect on the AKAP-Lbc/DHPH-RhoA interaction: result in words. The source says:
Fig 2 The small molecule Scaff10-8 inhibits the interaction of the DH domain of AKAP-Lbc and RhoA. (A). Principle of homogenous time-resolved fluorescence (HTRF) assay. Recombinant His-AKAP-Lbc/DHPH and GST-RhoA were generated. The tags are recognized by specific antibodies coupled to fluorescent dyes. When the two proteins interact, donor and acceptor dyes of the antibodies are in close proximity, energy transfer occurs upon excitation at 320 nm and a FRET signal is detected (665 nm). If a compound disrupts the interaction of the DHPH domain and RhoA, the proximity of the fluorescent moieties remains insufficient for a FRET signal to occur. […] As expected, excess untagged Rho decreases the binding between GST-RhoA and His-AKAP-Lbc/DHPH in a dose-dependent manner (lower left panel). […] (C) The influence of Scaff10-8 on the interaction of RhoA with the recombinant DH domain of AKAP-Lbc in the absence of the PH domain was determined by Alpha screen. […] The IC50 value is indicated.
The assay was essentially carried out as described. Scaff10 derivatives were added to His6-AKAP-Lbc/DHPH protein (250 nM final concentration) in HTRF buffer (PBS; 4 mM MgCl2; 0.05% Tween 20) in 384 well plates (Proxiplate-384 Plus, white, #6008289; Perkin Elmer LAS, Rodgau, Germany). Concentrations of Scaff10 derivatives ranged between 1.56–200 μM (2% DMSO final concentration); HTRF buffer with 2% DMSO served as a control. GST-RhoA (30 nM final concentration) in HTRF buffer and anti-GST antibody coupled to terbium (donor) and anti-His6-tag antibody coupled to XL665 (acceptor) were added to all wells (final antibody concentration: 2 μg/ml). After 1 h incubation at room temperature in the dark, FRET signals were recorded at 620 and 665 nm using a Genios Pro plate reader (Tecan Austria GmbH, Grödig, AT) and the ratios of […] to 620 nm were calculated. Wells containing no compound were set to 100% interaction of AKAP-Lbc/DHPH with RhoA, wells containing GST-RhoA only (without His6-AKAP-Lbc/DHPH) were set to 0% interaction. To exclude any interference of the tags and/or antibodies with Scaff10 derivatives, a His6-GST fusion protein replaced the two tagged proteins in a control assay. Wells containing His6-GST fusion protein were set to 100% interaction of His6-GST, wells containing no fusion protein were set to 0% interaction.

The mark [3] stands for this setting: DMEM + 10 % FCS, plasma or biological fluid, kinetic from dmso stock, 2 % DMSO final, read-out: Solubility 2 % DMSO.
The mark [4] stands for this setting: Suppl. Tab. 3, ± SEM, '-' = no IC50, inactive, n.d. = not determined, read-out: HTRF assay IC50.
[5] abbreviates: 2 % DMSO final, read-out: Solubility 2 % DMSO.
The mark [6] stands for this setting: DMEM + 10 % FCS, plasma or biological fluid, kinetic from dmso stock, 0.3 % DMSO final, read-out: Solubility 0.3 % DMSO.
The mark [7] stands for this setting: Table 1, HTRF, '-' = no IC50, inactive (n.d. is used separately in S3 Table), read-out: IC50 ± SEM.
Setting [8] is: 0.3 % DMSO final, read-out: Solubility 0.3 % DMSO.
[9] abbreviates: IC50 ± SEM, Table 1, HTRF, '-' = no IC50, inactive (n.d. is used separately in S3 Table).

The structures appear in SMILES notation. Like-named read-outs stand apart in the source and are kept apart here. Where only a bound is given, the exact number is not on record here.

T1 sequence (P61586 whole entry, the tested form may be a part): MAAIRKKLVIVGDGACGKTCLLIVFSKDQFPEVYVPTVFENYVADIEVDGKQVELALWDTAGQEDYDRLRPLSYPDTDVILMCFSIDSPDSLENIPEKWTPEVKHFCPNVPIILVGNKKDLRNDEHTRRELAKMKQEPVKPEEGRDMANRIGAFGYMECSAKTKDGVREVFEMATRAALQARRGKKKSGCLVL

Take `COc1ccc(C(=O)COc2ccc3ccc(=O)oc3c2)cc1` [AE167, 7-[2-(4-Methoxyphenyl)-2-oxo-ethoxy]chromen-2-one]: the solubility in data set [1] (setting [3]) stood at 30 µM. In addition, in data set [2] (setting [4]), the IC50 was above 200 µM.
As to `COc1ccc(C(=O)COc2ccc3c(C)c(C)c(=O)oc3c2)cc1` [AE168, [2-(4-Methoxyphenyl)-2-oxo-ethoxy]-3,4-dimethyl-chromen-2-one], the solubility in data set [1] (setting [5]) stood at 75 µM. In addition, the IC50 in data set [2] (setting [4]) was above 200 µM.
Turning to `COc1ccc(-c2coc3cc4oc(=O)ccc4cc23)cc1` [Scaff10-1, 3-(4-Methoxyphenyl)furo[3,2-g]chromen-7-one], the solubility in data set [1] (setting [6]) was found to be 40 µM; in data set [1] (setting [3]), 45 µM. For the same compound, the IC50 in data set [2] (setting [4]) was above 200 µM.
As to `Cc1c(C)c2ccc(OCC(=O)c3cccnc3)cc2oc1=O` [Scaff10-2, 3,4-Dimethyl-7-[2-oxo-2-(3-pyridyl)ethoxy]chromen-2-one], the solubility turned out to be 75 µM in data set [1] (setting [6]) and 90 µM in data set [1] (setting [3]). For the same compound, the IC50 in data set [2] (setting [4]) was above 200 µM.
For `Cc1c(C)c2cc3c(-c4cccnc4)coc3cc2oc1=O` [Scaff10-3, 5,6-Dimethyl-3-(3-pyridyl)furo[3,2-g]chromen-7-one] the same measures were above 150 µM, 40 µM and above 200 µM.
For the compound `Cc1nc(-c2ccc(F)cc2)ccc1C(=O)COc1ccc2c(C)c(C)c(=O)oc2c1` [Scaff10-4, 7-[2-[6-(4-Fluorophenyl)-2-methyl-3-pyridyl]-2-oxo-ethoxy]-3,4-dimethyl-chromen-2-one], the results for the solubility in data set [1] (setting [6]) and in data set [1] (setting [3]) were above 150 µM and 40 µM, respectively. Further, in data set [2] (setting [4]), the IC50 was above 200 µM.
For `Cc1nc(-c2ccc(F)cc2)ccc1-c1coc2cc3oc(=O)c(C)c(C)c3cc12` [Scaff10-5, 3-[6-(4-Fluorophenyl)-2-methyl-3-pyridyl]-5,6-dimethyl-furo[3,2-g]chromen-7-one] the same measures were above 150 µM, 65 µM and above 200 µM.
For the compound `COc1ccc(C(=O)COc2ccc3c(C)c(CCC(=O)O)c(=O)oc3c2)cc1` [Scaff10-6, 3-[7-[2-(4-Methoxyphenyl)-2-oxo-ethoxy]-4-methyl-2-oxo-chromen-3-yl]propanoic acid], the solubility in data set [1] (setting [6]) was above 150 µM; in data set [1] (setting [3]), 100 µM. In addition, the IC50 in data set [2] (setting [7]) is above 200 µM.
As for `COc1ccc(C(=O)COc2ccc3c(C)c(CCC(=O)NCCNC(=O)CCCCC4SCC5NC(=O)NC54)c(=O)oc3c2)cc1` (centres unmarked) [Scaff10-9, N-[2-[3-[7-[2-(4-Methoxyphenyl)-2-oxo-ethoxy]-4-methyl-2-oxo-chromen-3-yl]propanoylamino]ethyl]-5-(2-oxo-1,3,3a,4,6,6a-hexahydrothieno[3,4-d]imidazol-4-yl)pentanamide], the IC50 in data set [2] (setting [4]) was above 200 µM.
Consider `CCOC(=O)CCc1c(C)c2ccc(OCC(=O)c3ccc(-c4ccc(F)cc4)nc3C)cc2oc1=O` [Scaff10-10, Ethyl 3-[7-[2-[6-(4-fluorophenyl)-2-methyl-3-pyridyl]-2-oxo-ethoxy]-4-methyl-2-oxo-chromen-3-yl]propanoate], for which the solubility is reported as above 150 µM in data set [1] (setting [8]) and 30 µM in data set [1] (setting [5]). In data set [2] (setting [4]), the IC50 was above 200 µM.
For the compound `COc1ccc(-c2coc3cc4oc(=O)c(CCC(=O)N(C)C)c(C)c4cc23)cc1` [Scaff10-26], the solubility in data set [1] (setting [8]) was above 150 µM; in data set [1] (setting [5]), 50 µM. Also, the “inhibitory effect on the AKAP-Lbc/DHPH-RhoA interaction” value in data set [2] (HTRF) is reported as “complete loss of the inhibitory effect”. Further, in data set [2] (setting [7]), the IC50 is above 200 µM.
`Cc1c(CCC(=O)O)c(=O)oc2cc3occ(-c4ccc(C(F)(F)F)cc4)c3cc12` [Scaff10-30]: the solubility in data set [1] (setting [3]) was above 100 µM. In addition, the “inhibitory effect on the AKAP-Lbc/DHPH-RhoA interaction” value in data set [2] (HTRF) was “reduced”. In data set [2] (setting [9]), this compound yielded an IC50 of 47.8 ± 7.8 µM.
On to `Cc1c(CCC(=O)O)c(=O)oc2cc3occ(-c4ccncc4)c3cc12` [Scaff10-32], for which the solubility was above 150 µM in data set [1] (setting [8]) and above 100 µM in data set [1] (setting [5]). Further, the “inhibitory effect on the AKAP-Lbc/DHPH-RhoA interaction” value in data set [2] (HTRF) is reported as “complete loss of activity”. The IC50 in data set [2] (setting [7]) is above 200 µM.
For `Cc1c(CCC(=O)O)c(=O)oc2cc(OCC(=O)c3ccc(N(C)C)cc3)ccc12` [Scaff10-35] the same measures were above 150 µM, above 100 µM, “complete loss of activity” and above 200 µM.
For the compound `Cc1c(CCC(=O)O)c(=O)oc2cc(OCC(=O)c3ccc(-c4ccccc4)cc3)ccc12` [Scaff10-40], the solubility in data set [1] (setting [6]) came out at 10 µM; in data set [1] (setting [3]) it was 15 µM. Also, the IC50 in data set [2] (IC50 for inhibition of the AKAP-Lbc/DHPH-RhoA interaction, HTRF, text and figures, ± SEM, n = 3–15 in duplicate) amounted to 21 ± 3 µM; in data set [2] (setting [9]), 20.8 ± 2.6 µM.
For the compound `Cc1c(CCC(=O)O)c(=O)oc2cc3occ(-c4ccc(-c5ccccc5)cc4)c3cc12` [Scaff10-41], in data set [1] (setting [3]), the solubility is 50 µM. In data set [2] (setting [9]), this compound registered an IC50 of 29.1 ± 2.6 µM.
In the case of `COc1ccc2cc(-c3coc4cc5oc(=O)c(CCC(=O)O)c(C)c5cc34)ccc2c1` [Scaff10-44], the results for the solubility in data set [1] (setting [6]) and in data set [1] (setting [3]) were 40 µM and 15 µM, respectively. The IC50 in data set [2] (setting [9]) was 20.7 ± 2.5 µM.
For `Cc1c(C)c2cc3c(-c4ccc(-c5ccccc5)cc4)coc3cc2oc1=O` [Scaff10-46], the solubility in data set [1] (setting [8]) is above 150 µM; in data set [1] (setting [5]) it was 15 µM. The “inhibitory effect on the AKAP-Lbc/DHPH-RhoA interaction” value in data set [2] (HTRF) is on record as “no inhibitory effect”. In addition, the IC50 in data set [2] (setting [7]) was above 200 µM.
As for `COc1ccc2cc(-c3coc4cc5oc(=O)c(C)c(C)c5cc34)ccc2c1` [Scaff10-47], the solubility is given as above 150 µM in data set [1] (setting [8]) and 15 µM in data set [1] (setting [5]). In addition, the “inhibitory effect on the AKAP-Lbc/DHPH-RhoA interaction” value in data set [2] (HTRF) is “no inhibitory effect”. Moreover, the IC50 in data set [2] (setting [7]) is above 200 µM.
With `COc1ccc(-c2coc3cc4oc(=O)c(CC(=O)O)c(C)c4cc23)cc1` [Scaff10-49], the solubility in data set [1] (setting [6]) was above 150 µM; in data set [1] (setting [3]) it was above 100 µM. In addition, the IC50 in data set [2] (HTRF, text and figures, ± SEM, n = 3–15 in duplicate, read-out: IC50 for inhibition of the AKAP-Lbc/DHPH-RhoA interaction) came out at 56 ± 5 µM; in data set [2] (setting [7]) it was 56.4 ± 4.5 µM.
For the compound `COc1ccc(-c2coc3c(C)c4oc(=O)c(CCC(=O)O)c(C)c4cc23)cc1` [Scaff10-50], the solubility is above 150 µM in data set [1] (setting [6]) and 70 µM in data set [1] (setting [3]). Also, in data set [2] (setting [4]), the IC50 is 26.8 ± 3.5 µM.
Take `COc1ccc(-c2coc3cc4oc(=O)c(CCC(=O)NO)c(C)c4cc23)cc1` [Scaff10-51]: the solubility came to 40 µM in data set [1] (setting [8]) and 20 µM in data set [1] (setting [5]). Besides, in data set [2] (HTRF), the “inhibitory effect on the AKAP-Lbc/DHPH-RhoA interaction” value is on record as “almost complete loss of activity”. In data set [2] (setting [7]), the IC50 is above 200 µM.
For the compound `Cc1c(CCC(=O)O)c(=O)oc2cc3occ(-c4ccccc4)c3cc12` [Scaff10-58], the results for the solubility in data set [1] (setting [6]) and in data set [1] (setting [3]) were above 150 µM and above 100 µM, respectively. Further, the IC50 in data set [2] (setting [7]) turned out to be 66.7 ± 7.5 µM.
For the compound `COc1ccc(-c2coc3cc4oc(=O)c(CCC(=O)NCC(=O)O)c(C)c4cc23)cc1` [Scaff10-61], in data set [1] (setting [6]), the solubility was above 150 µM. In data set [2] (setting [9]), this compound returned an IC50 of 64 ± 6 µM.
